One series has as its system A549. As to the kind of experiment: In vitro cytotoxicity assay (MTT). It counts as cell-based. The note with it: Homo sapiens, 144 h, 6 days incubation. In short, it runs like this: (§1)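 Viability of each human cancer line is measured by MTT reduction after six-day continuous compound treatment at 37°C. IC50 derives from inhibition curve fitting relative to untreated cells.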

Another series deals with BXPC3. The experiment in a line: In vitro cytotoxicity assay (MTT). It counts as cell-based. The note with it: Homo sapiens, BXPC-3, 144 h, 6 days incubation. The procedure, abridged:
as §1

For another series, the system named is Caco-2. As to the kind of experiment: In vitro cytotoxicity assay (MTT). Format: cell-based. As to conditions: Homo sapiens, 144 h, 6 days incubation. In short, it runs like this:
as §1

For another series, the system named is HCT-116. The experiment in a line: In vitro cytotoxicity assay (MTT). It counts as cell-based. As to conditions: Homo sapiens, 144 h, 6 days incubation. In short, it runs like this: as §1
For the next series, the system named is HT-29. The experiment in a line: In vitro cytotoxicity assay (MTT). Format: cell-based. The note with it: Homo sapiens, 144 h, 6 days incubation. The procedure, abridged: as §1
In the next series the test system is KB-1. The experiment in a line: In vitro cytotoxicity assay (MTT). Format: cell-based. As to conditions: Homo sapiens, KB16, 144 h, 6 days incubation. In short, it runs like this:
as §1

A further series has as its system MCF-7. As to the kind of experiment: In vitro cytotoxicity assay (MTT). Format: cell-based. As to conditions: Homo sapiens, MCF7, 144 h, 6 days incubation. In short, it runs like this:
as §1

A further series has as its system OE-19. The experiment in a line: In vitro cytotoxicity assay (MTT). As to conditions: Homo sapiens, OE19, 144 h, 6 days incubation. It counts as cell-based. In short, it runs like this: as §1
Another series has as its system 340 protein kinases. The experiment in a line: Kinase screening assay (radiometric 33PanQinase). It counts as biochemical, human. As to conditions: 10 µM; most inhibited kinases: CMGC family, particularly CDKs (23 out of the 30 most inhibited were CDK/Cyclin complexes). The protocol:
Compound 2384 according to the disclosure was subjected to kinase screening assays (performed at Reaction Biology, Germany). The screening assay was performed at a final compound concentration of 10 µM. A radiometric protein kinase assay (33PanQinase® ActivityAssay) was used for measuring the kinase activity of 340 protein kinases. All kinase assays were performed in 96-well FlashPlates™ from Perkin Elmer (Boston, MA, USA) in a 50 µL reaction volume. […] All PKC assays (except the PKC-mu and the PKC-nu assay) additionally contained 1 mM CaCl2, 4 mM EDTA, 5 µg/m! Phosphatidylserine and 1 µg/m! 1,2-Dioleyl-glycerol. The CAMK1D, CAMK2A, CAMK2B, CAMK2D, CAMK2G, CAMK4, CAMKK1, CAMKK2, DAPK2, EEF2K, MYLK, MYLK2 and MYLK3 assays additionally contained 1 µg/ml Calmodulin and 0.5 mM CaCl2. The PRKG1 and PRKG2 assays additionally contained 1 µM cGMP. The DNA-PK assay additionally contained 2.5 µg/ml DNA. The protein kinase reaction cocktails were incubated at 30°C for 60 minutes. The reaction was stopped with 50 µl of 2 % (v/v) H3PO4, plates were aspirated and washed two times with 200 µL 0.9 % (w/v) NaCl. Incorporation of 33Pi (counting of "cpm") was determined with a microplate scintillation counter (Microbeta, Wallac). All protein kinase assays were performed with a BeckmanCoulter Biomek 2000/SL robotic system. […]

The test system of another series is CycK. The experiment in a line: CycK protein quantification by Western Blot. Format: cell-based, human. The protocol: 1×10^6 JIMT-1 cells were plated in 3mL of DMEM/FBS 90:10 (v/v) in 6-well plates and incubated overnight. Cells were treated with the compound 2384 of the invention with or without the proteasome inhibitor MG-132 (MedChemExpress, Cat HY-13259) for 2h. Cells were harvested, and protein were extracted using complete RIPA buffer (RIPA buffer, 1 mM DTT, 1M NaF, 100 mM sodium orthovanadate, phosphatase inhibitor buffer and protease inhibitors) for 1 hour on ice. Lysate were centrifuged 15min at 12 000g at 4°C. and proteins were mixed with 4x Laemmli Sample Buffer (Bio-Rad), heated at 95 °C for 5 mins and separated by SDS PAGE (PROTEAN TGX Stain-Free Gels, Bio-Rad). Proteins were then transferred onto PVDF membrane (iBlot®2 PVDF stacks, Invitrogen) using the iBlot2 device (Invitrogen) and blocked with TBS buffer (Intercept® Blocking Buffer, LI-COR Biosciences). Primary antibodies were incubated overnight at 4°C and secondary antibodies (IRDye Infrared Dyes from LI-COR Biosciences) 1 hour at room temperature. Used primary antibody were: anti-CycK (cat#A301-939A, Bethyl Laboratories, dil. 1:1000) and anti-β-actin (cat#A5441, Sigma-Aldrich, dil. 1:5000). Membranes were scanned using a c500 Imaging System (Azure Biosystems) and densitometric quantification were performed using imaged software. Protein levels were normalized against β-actin.

Another series concerns CycK mRNA. The experiment in a line: CycK mRNA by RT-qPCR. It counts as cell-based, human. As to conditions: JIMT-1 cells, 1µM, 2h. The procedure:
1×10^6 JIMT-1 cells were plated in 3mL of DMEM/FBS 90:10 (v/v) in 6-well plates and incubated overnight. Cells were treated with the compound 2384 of the invention, with CR8 (a known molecular glue degrader that depletes CycK) or with the proteasome inhibitor MG-132 (MedChemExpress, Cat HY-13259) for 2h. RNA was extracted using the QIAamp RNeasy Mini Kit (cat#74106, Qiagen) according to the manufacturer's protocol. Reverse transcription was performed using SuperScripr™ IV reverse transcriptase (cat#LT02241, Invitrogen). Quantitative PCR was performed using a No ROX Sybr Master Mix in the LightCycler 480 Real-Time PCR system (Roche Life Science).
Cyclin K forward ([…]) and reverse ([…]) primers were purchased from Eurogentec. Gene expression was normalized using ribosomal 28S as the housekeeping gene.

The next series can be described thus: in vitro. As to conditions: PAMPA, pH 7.4.

Molecules are shown by their SMILES.

As usually defined, the IC50 is the midpoint of a concentration-inhibition curve. What is called Papp is a coefficient for how fast a substance crosses the barrier. A low value points to slow passage. As to `N[C@H]1CC[C@H](Nc2nc(NCc3ccc(-c4ccccn4)cc3)n3ncc(Br)c3n2)CC1` [Compound 2384], the 50% inhibitory concentration (IC50) stood at 0.56 nM in the series with A549; 1.46 nM with BXPC3; 6.64 nM with Caco-2; 1.19 nM in the series with HCT-116; 0.22 nM in the series on HT-29; 0.38 nM with KB-1. Further, the IC50 in the series with MCF-7 came to 3.42 nM; with OE-19 it was 2.24 nM. The “inhibition of kinase activity” value in the series with 340 protein kinases is on record as “more than 90%”. The CycK degradation entry in the series on CycK (10nM, 2h treatment of JIMT-1 cells) is “complete CycK degradation”. Besides, the CycK protein content result in the series on CycK (JIMT-1 cells, 1µM, 2h) was “decreased CycK protein content”; in the series with CycK (JIMT-1 cells, combination with the proteasome inhibitor MG-132, 2h) it was “restored the content in cycK protein”. Besides, in the series with CycK (JIMT-1 cells, 2h), the “minimum effective dose for CycK degradation compared with CR8” value is recorded as “approximately 10 times lower”. Moreover, the “CycK mRNA level” value with CycK mRNA is recorded as “not at the CycK mRNA level”. The compound also displayed a Papp at 5 h, 50 µM in the series “in vitro” of 84 ×10⁻⁶ cm/s.

Values taken from patent EP4512427A1, “ANTIBODY-DRUG CONJUGATES BASED ON MOLECULAR GLUE DEGRADERS AND USES THEREOF” (Mablink Bioscience, priority 2023, dated 2025).
